Patent US20150079000A1, “Labelled Quinoxaline Derivatives as Multimodal Radiopharmaceuticals and Their Precursors” (INSTITUT NATIONAL DE LA SANTET DE LA RECHERCHE MEDICALE, priority 2012, published 2015)

Key:
[1] = system: SKMEL-3 tumours; test: PET imaging in SKMEL-3 tumour bearing mice; assay type: in vivo, Swiss nudes mice; conditions: 1 h p.i.
Experimental: (§1) Protocols were performed under the authorization of the French Direction des Services Veterinaires (authorization no. CE 86-12). Female Swiss nudes mice (6 weeks old) were originating from Charles River laboratories and maintained at 21° C. with a 12 h/12 h light/dark cycle, fed with a breeding diet (diet A04 from Safe, Villemoisson, France) and received water ad libitum. For transplantation cell suspension were grown in a monolayer culture to confluence, after which cells were trypsinized, washed with phosphate buffer saline (PBS) and they were resuspended in PBS. Mice were anesthetized by isoflurane (4% for induction and 2±0.5% for maintaining in oxygen flux) inhalation. The primary tumour model was induced by subcutaneous injection of 3×10^6 melanoma SKMEL-3 (pigmented cell line) or A375 (non-pigmented cell ligne) cells in 0.1 mL on the right shoulder of mice.
Whole-body PET scans were acquired 1 h after bolus injection of 10 MBq of [^18F](1) in a volume of 0.15 ml via the tail vein. […]
Regional tracer uptake was quantified by standard region-of-interest (ROI) analysis with eXplore Vista software package. […]

[2] = radiochemical stability of the radiotracer after preparation; assay type: physicochemical
[3] = system: B16BL6 tumour; test: PET imaging in B16BL6 tumour bearing mice; assay type: in vivo, C57BL/6J mice; conditions: 1 h p.i., day-15
Experimental: as §1, with “All our studies were performed in accordance with French and European Economic Community (86-609, EEC) guidelines for care of laboratory animals. Protocols” for “Protocols”, “Male C57BL/6J” for “Female Swiss nudes”, “mice” for “mice (6 weeks old)”, “transplantation B16BL6” for “transplantation”, “3×10^5” for “3×10^6”, “B16B16” for “SKMEL-3 (pigmented cell line) or A375 (non-pigmented cell ligne)”
Whole-body PET scans were acquired 1 h after bolus injection of […] of the appropriate [^18F]-compound in a volume of 0.15 ml via the tail vein. Mice were anesthetized by intraperitoneal (i.p.) administration (200 μL/mouse) of a ketamine-xylazine mixture in saline: ketamine (100 mg/kg, Imalgene™, Rhône Mérieux, Lyon, France) and xylazine (10 mg/kg, Rompun™, Bayer, France) before radiotracer injection and imaged by using a small-animal PET device, eXplore Vista microPET instrument (GE Healthcare). PET images were acquired by using static mode during 20 min. The acquired data were reconstructed using the 2-Dimensional ordered-subsets expectation maximization (OSEM) algorithm and corrected from decay, scatter and randoms. No corrections were applied for partial volume or attenuation.
Regional tracer uptake was quantified by standard region-of-interest (ROI) analysis with eXplore Vista software package. A manual 2D-ROI was drawn around the tumour in each slice where tumour was visible, and on several subsequent coronal planes containing muscle tissue at the forelimb. Results are expressed by percentage of injected dose per gram of tissue (% ID/g).
PET imaging was performed 1 h post injection of tracers in B16BL6 tumour bearing mice at day-15 after tumours cell inoculation.

[4] = octanol/water (PBS buffer) partition coefficient (log D); assay type: physicochemical
[5] = [18F](1) stability study on ex vivo extracts; assay type: in vivo, mice
Experimental: Six primary melanoma bearing mice were intravenously injected with 18 MBq of [^18F](1) and sacrificed 30 min, 1 h and 2 h after tracer injection. To determine the metabolic stability of [^18F](1), blood, tumour, eyes, liver and urine samples were collected. Blood was immediately centrifuged for 5 min at 3,000 rpm and plasma directly investigated by analytical HPLC. Other organs were pooled and homogenized using GentleMACS™ dissociator (Miltenyi Biotec, Bergisch Gladbach, Germany), suspended in 5 mL of methanol/NH4OH 99.8:0.2 and centrifuged for 5 min at 3,000 rpm. The extraction efficiency was determined by measuring the radioactivity of supernatants and precipitates. Supernatants were passed through a 0.22 μm Millipore filter and then concentrated to a volume between 200 and 500 μL before injection (duplicate) onto the analytical HPLC (Waters Symmetry® C18; Gradient elution: 60% to 90% MeOH (0.4% NH4OH) in water (0.4% NH4OH) (10 min), then 60% for 7 min).

Compound: CCN(CCNC(=O)c1cnc2cc(I)ccc2n1)CCOCCOCCOCC[18F] [[^18F](1)]
- muscles activity ([1]; SKMEL-3 tumour bearing mice): 1.34±0.42 % ID/g
- tumour uptake ([1]; day-27, pigmented SKMEL-3 tumours): 4.65±1.07 % ID/g
- radiochemically stable at room temperature after preparation [2]: at least 24 h
- eyes uptake [3]: 10.50±2.95 % ID/g
- intestine uptake [3]: 4.07±1.39 % ID/g
- muscles activity [3]: 1.37±0.37 % ID/g
- pigmented spleen uptake [3]: 7.38±0.73 % ID/g
- tumour uptake [3]: 14.33±2.11 % ID/g
- tumour/muscle ratio [3]: 11.04±2.87
- octanol/water (PBS buffer) partition coefficient (log D) [4]: 1.52±0.03
- % unchanged [18F](1) ([5]; Black, Blood, 30 min): 15.2%
- % unchanged [18F](1) ([5]; Black, Eyes, 1 h): 100%
- % unchanged [18F](1) ([5]; Black, Eyes, 2 h): >99%
- % unchanged [18F](1) ([5]; Black, Liver, 1 h): <10%
- % unchanged [18F](1) ([5]; Black, Liver, 2 h): <20%
- % unchanged [18F](1) ([5]; Black, Tumour, 1 h): >99%
- % unchanged [18F](1) ([5]; Black, Tumour, 2 h): 100%
- % unchanged [18F](1) ([5]; Black, Urine, 1 h): 0.1%
- % unchanged [18F](1) ([5]; Black, Urine, 2 h): 0.0%
- % unchanged [18F](1) ([5]; Nude, Blood, 30 min): 3.0%
- % unchanged [18F](1) ([5]; Nude, Liver, 2 h): <10%
- % unchanged [18F](1) ([5]; Nude, Tumour, 1 h): >99%
- % unchanged [18F](1) ([5]; Nude, Tumour, 2 h): >99%
- % unchanged [18F](1) ([5]; Nude, Urine, 1 h): 2.7%
- % unchanged [18F](1) ([5]; Nude, Urine, 2 h): 1.4%
